In patent US12144824B2, “Method for enhancing embryo implantation” (The Flinders University of South Australia, priority 2018, dated 2024):

Legend:
[1] = tested on: VEGF production, human Ishikawa endometrial adenocarcinoma cell line; assay: VEGF production by Ishikawa cells exposed to copper or zinc chloride solutions (multiplex immunoassay); format: cell-based
Description: Medium was refreshed every 48 hours. Cells were subcultured using 0.25% trypsin/EDTA (Invitrogen).

[2] = tested on: LIF production, human Ishikawa endometrial adenocarcinoma cell line; assay: LIF production by Ishikawa cells exposed to copper or zinc chloride solutions (multiplex immunoassay)
Description: (§1) The human Ishikawa endometrial adenocarcinoma cell line (Sigma-Aldrich; St Louis, MO, United States of America) was used to model the endometrium's response to copper and zinc metal ions (Cu^2+ and Zn^2+). Cells were grown in T75 flasks (Nalge Nunc International, Rochester, NY, United States of America) in Ishikawa medium, consisting of αMEM (Sigma-Aldrich) supplemented with 5% foetal bovine serum (Invitrogen Corp, Carlsbad, CA, United States of America), 2 mM glutamine (Sigma-Aldrich) and 1% non-essential amino acids (Sigma-Aldrich) without antibiotics at 37° C. under a gas atmosphere of 5% CO2 in air. Medium was refreshed every 48 hours. Cells were subcultured using 0.25% trypsin/EDTA (Invitrogen). For metal ion exposure experiments, cells were seeded onto 2-well chamber slides (Ibidi, Martinsried, Germany). After the endometrial cells had attached and reached 80-90% confluence they were then exposed to copper and zinc metal ions using two approaches (salt solution or metal implant) as described below.
(§2) Copper or zinc chloride (Sigma-Aldrich) was dissolved in Ishikawa medium to produce salt solutions at various concentrations in the range of 0.2 μM and 200 μM, before being applied to Ishikawa cells seeded into 2-well chamber slides for a period of 8 hours. Following the 8 hours exposure, culture media were removed, centrifuged at 1000 g for 10 minutes at 4° C. to pellet any cellular debris, and then the supernatants were stored in Eppendorf tubes at −80° C. Subsequently, the supernatants were assayed for both LIF and VEGF content using a multiplex immunoassay system (elisakit.com, Scoresby, VIC, Australia).

[3] = tested on: LIF production, human Ishikawa endometrial adenocarcinoma cell line
Description: as §1, §2

murine day 3 embryos = assay: Mouse embryo development and blastocyst outgrowth assay on fibronectin-coated plates; format: cell-based; settings: short term exposure
Description: Ishikawa cells were seeded onto 2-well chamber slides in Ishikawa medium until they reached 80-90% confluence. Then, 5 minutes prior to exposure to metal implants, the medium was changed to G2 embryo culture medium, and the Ishikawa cells exposed to copper, zinc or copper-zinc bimetal implants for either 2 or 5 minutes duration (or remained unexposed (control)), and the resulting G2 culture media collected 8 hours later.
To determine whether metal ions were capable of enhancing embryo implantation, post-compaction mouse embryos were exposed to the “conditioned media” prior to undergoing outgrowth assays. In particular, pronucleate oocytes were collected from superovulated female F1 mice ˜21-22 hours post-hCG. Following cumulus cell removal, oocytes were cultured in 20 μl drops (10 embryos/drop) of G1 medium under paraffin oil (Vitrolife) at 37° C. in 6% CO2, 5% O2 and 89% N2. After 48 hours, compacting and morulae stage embryos were randomly transferred to culture in either (i) control G2 medium (Vitrolife) that had not been exposed to Ishikawa cells; (ii) individual culture in 2 μl of control, Ishikawa exposed G2; or (iii) individual culture in 2 μl drops of 2 minute copper-zinc bimetal implant exposed G2 medium. After 48 hours, the capacity of blastocysts to undergo outgrowth was assessed in the following manner. […] All images were collected and analysed at matching magnification.

[Cl-].[Cl-].[Zn+2] [ZnCl2, zinc chloride]
concentration from which VEGF production appeared reduced ([1]; 8 hours exposure): ≥ 150 µM | increase in VEGF compared to controls ([1]; 8 hours exposure): no significant increase | dose above which toxicity, with a reduction in LIF production, was observed ([2]; 8 hours exposure): exceeding 150 μM

[Cl][Cu][Cl] [CuCl2, copper chloride]
toxicity in relation to LIF production [3]: No toxicity | concentration of peak VEGF production ([1]; 8 hours exposure): 100 µM | concentration producing a significant increase in VEGF production ([1]; 8 hours exposure): above 20 μM | lowest amount confirmed to elicit an increase in endometrial VEGF ([1]; Example 1): 20 µM | concentration exceeding which a relative decline in endometrial VEGF production was observed ([1]; in vitro): exceeding 100 μM | increase in endometrial LIF production ([2]; CuCl2 200 μM): 4 fold | LIF production increase above baseline ([2]; CuCl2 200 μM, 8 hours): 420% | lowest amount confirmed to elicit an increase in endometrial LIF ([2]; Example 1): 20 µM | concentration producing a significant increase in LIF production ([2]; salt solution in Ishikawa medium, 8 hours exposure): exceeding 2 μM

[Zn+2] [zinc ions]
toxicity to pre-implantation embryo development (murine day 3 embryos): not significant

[Cu+2] [copper ions]
toxicity to pre-implantation embryo development (murine day 3 embryos): not significant
